Columns and labels:
human TLR7 = human TLR7 (Homo sapiens (Human), UniProt Q9NYK1); test: TLR7 inhibition reporter assay (HEK-Blue SEAP); type: cell-based; settings: HEK-Blue cells overexpressing human TLR7, gardiquimod 7.5 μM stimulation, SEAP reporter
human TLR8 = human TLR8 (Homo sapiens (Human), UniProt Q9NR97); test: TLR8 inhibition reporter assay (HEK-Blue SEAP); settings: read-out: TLR8 IC50; HEK-Blue cells overexpressing human TLR8, R848 15.9 μM stimulation, SEAP reporter;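 further: SEAP driven by IFN-β minimal promoter carrying NF-κB and AP-1 sites, compounds dosed 0.05 nM to 50 µM for 22 h, inhibition scaled between agonist-plus-DMSO and reference-inhibitor wells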
human TLR9 = human TLR9 (Homo sapiens (Human), UniProt Q9NR96); test: TLR9 inhibition reporter assay (HEK-Blue SEAP); settings: read-out: TLR9 IC50; HEK-Blue cells overexpressing human TLR9, ODN2006 5 nM stimulation, SEAP reporter;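 further: SEAP driven by an IFN-β minimal promoter with NF-κB and AP-1 sites, read after 22 h, compounds dosed 0.05 nM–50 µM, inhibition scaled between agonist plus DMSO and reference-inhibitor wells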
Sequence of human TLR9 (Q9NR96 26-1032): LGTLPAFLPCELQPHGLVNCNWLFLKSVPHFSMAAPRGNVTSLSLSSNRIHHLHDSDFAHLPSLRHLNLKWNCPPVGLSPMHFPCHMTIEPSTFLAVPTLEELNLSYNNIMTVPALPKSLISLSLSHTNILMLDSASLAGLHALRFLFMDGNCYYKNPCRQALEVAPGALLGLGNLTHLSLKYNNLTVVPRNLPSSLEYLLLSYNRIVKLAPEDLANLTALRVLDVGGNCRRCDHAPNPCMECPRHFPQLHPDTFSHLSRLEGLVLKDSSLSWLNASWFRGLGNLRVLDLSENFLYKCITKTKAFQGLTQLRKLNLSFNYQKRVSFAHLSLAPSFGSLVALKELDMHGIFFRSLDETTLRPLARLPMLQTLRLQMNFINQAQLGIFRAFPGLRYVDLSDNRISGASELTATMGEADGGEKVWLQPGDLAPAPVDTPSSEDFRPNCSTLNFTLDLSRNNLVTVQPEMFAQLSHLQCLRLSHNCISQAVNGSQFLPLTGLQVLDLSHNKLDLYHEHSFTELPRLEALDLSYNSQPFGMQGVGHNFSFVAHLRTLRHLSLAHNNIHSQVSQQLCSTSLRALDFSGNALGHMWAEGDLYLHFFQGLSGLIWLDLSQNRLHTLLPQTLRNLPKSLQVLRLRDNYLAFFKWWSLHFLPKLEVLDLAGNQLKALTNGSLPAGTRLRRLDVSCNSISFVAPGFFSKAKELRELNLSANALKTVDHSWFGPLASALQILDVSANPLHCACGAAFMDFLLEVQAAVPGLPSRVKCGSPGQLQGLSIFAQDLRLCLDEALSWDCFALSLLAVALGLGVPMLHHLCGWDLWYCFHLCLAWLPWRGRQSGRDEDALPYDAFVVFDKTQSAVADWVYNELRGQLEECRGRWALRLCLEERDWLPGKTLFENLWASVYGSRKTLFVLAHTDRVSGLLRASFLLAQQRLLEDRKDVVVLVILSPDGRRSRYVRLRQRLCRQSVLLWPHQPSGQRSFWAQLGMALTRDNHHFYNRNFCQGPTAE
Experimental: HEK-Blue™-cells (Invivogen) overexpressing human TLR7, TLR8 or TLR9 receptors were used for screening inhibitors of these receptors using an inducible SEAP (secreted embryonic alkaline phosphatase) reporter gene under the control of the IFN-β minimal promoter fused to five NF-κB and AP-1-binding sites. Briefly, cells are seeded into Greiner 384 well plates (15000 cells per well for TLR7, 20,000 for TLR8 and 25,000 for TLR9) and then treated with test compounds in DMSO to yield a final dose response concentration range of 0.05 nM-50 μM. After a 30 minute compound pre-treatment at room temperature, the cells are then stimulated with a TLR7 ligand (gardiquimod at a final concentration of 7.5 μM), TLR8 ligand (R848 at a final concentration of 15.9 μM) or TLR9 ligand (ODN2006 at a final concentration of 5 nM) to activate NF-κB and AP-1 which induce the production of SEAP. After a 22 hour incubation at 37° C., 5% CO2, SEAP levels are determined with the addition of HEK-Blue™ Detection reagent (Invivogen), a cell culture medium that allows for detection of SEAP, according to manufacturer's specifications.

Sequence of human TLR8 (Q9NR97 27-1041): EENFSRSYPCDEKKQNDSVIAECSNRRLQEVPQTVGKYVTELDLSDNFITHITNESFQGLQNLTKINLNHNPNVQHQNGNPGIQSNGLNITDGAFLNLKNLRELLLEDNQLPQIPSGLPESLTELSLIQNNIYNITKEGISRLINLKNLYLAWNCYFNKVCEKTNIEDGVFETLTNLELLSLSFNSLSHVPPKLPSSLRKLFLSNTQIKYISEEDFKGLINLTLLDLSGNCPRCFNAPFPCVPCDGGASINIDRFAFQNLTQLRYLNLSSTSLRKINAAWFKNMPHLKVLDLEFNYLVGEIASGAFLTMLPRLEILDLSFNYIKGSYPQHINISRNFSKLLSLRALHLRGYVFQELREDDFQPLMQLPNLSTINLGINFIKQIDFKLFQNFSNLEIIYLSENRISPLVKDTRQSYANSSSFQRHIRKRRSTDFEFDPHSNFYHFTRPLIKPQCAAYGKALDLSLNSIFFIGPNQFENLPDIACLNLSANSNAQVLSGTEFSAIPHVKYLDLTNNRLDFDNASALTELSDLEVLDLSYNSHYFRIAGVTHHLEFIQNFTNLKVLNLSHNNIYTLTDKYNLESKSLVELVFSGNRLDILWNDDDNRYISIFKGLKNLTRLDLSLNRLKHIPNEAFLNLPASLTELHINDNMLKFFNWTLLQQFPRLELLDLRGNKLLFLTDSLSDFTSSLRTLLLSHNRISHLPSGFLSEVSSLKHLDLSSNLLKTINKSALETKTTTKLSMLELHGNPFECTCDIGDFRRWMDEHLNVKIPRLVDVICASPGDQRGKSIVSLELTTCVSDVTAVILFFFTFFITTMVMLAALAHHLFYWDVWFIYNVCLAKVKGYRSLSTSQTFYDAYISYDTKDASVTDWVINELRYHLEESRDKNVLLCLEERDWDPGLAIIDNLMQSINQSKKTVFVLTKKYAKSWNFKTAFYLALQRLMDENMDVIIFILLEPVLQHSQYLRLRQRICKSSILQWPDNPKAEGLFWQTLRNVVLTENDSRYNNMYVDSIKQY
Sequence of human TLR7 (Q9NYK1 27-1049): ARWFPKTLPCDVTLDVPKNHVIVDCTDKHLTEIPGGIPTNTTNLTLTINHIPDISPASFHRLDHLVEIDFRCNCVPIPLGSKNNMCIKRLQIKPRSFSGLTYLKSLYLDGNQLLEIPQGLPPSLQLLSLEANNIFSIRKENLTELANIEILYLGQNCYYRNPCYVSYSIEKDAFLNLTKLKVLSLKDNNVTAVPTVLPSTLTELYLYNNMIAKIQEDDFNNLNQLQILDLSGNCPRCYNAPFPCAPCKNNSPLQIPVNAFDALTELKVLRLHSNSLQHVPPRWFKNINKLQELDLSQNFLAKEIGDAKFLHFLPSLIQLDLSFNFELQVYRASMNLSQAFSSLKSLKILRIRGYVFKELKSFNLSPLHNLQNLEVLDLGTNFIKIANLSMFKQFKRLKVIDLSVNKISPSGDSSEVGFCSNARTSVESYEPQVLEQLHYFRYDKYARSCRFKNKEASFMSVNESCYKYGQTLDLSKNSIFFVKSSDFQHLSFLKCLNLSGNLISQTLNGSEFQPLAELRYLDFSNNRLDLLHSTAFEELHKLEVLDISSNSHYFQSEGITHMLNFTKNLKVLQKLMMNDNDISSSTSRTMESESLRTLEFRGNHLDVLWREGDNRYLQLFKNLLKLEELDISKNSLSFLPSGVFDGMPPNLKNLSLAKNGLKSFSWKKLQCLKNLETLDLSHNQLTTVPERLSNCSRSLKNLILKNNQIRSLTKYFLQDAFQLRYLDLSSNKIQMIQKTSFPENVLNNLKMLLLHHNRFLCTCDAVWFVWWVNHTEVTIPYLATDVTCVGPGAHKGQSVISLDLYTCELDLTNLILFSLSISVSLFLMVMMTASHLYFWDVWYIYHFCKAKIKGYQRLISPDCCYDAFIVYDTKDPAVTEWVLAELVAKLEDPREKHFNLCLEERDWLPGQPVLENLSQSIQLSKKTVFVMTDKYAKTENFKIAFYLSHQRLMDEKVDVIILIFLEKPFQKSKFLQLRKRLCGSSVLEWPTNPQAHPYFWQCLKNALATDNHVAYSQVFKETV

COc1cc(-c2[nH]c3ccc(N4CCN(CCC(C)(C)C)CC4)nc3c2C(C)C)cn2ncnc12 [Example 114]
IC50 (human TLR7): 4.7 nM
IC50 (human TLR8): 1.8 nM
IC50 (human TLR9): 7590 nM

CCCCN1CCN(c2ccc3[nH]c(-c4cc(OC)c5ncnn5c4)c(C(C)C)c3n2)CC1 [Example 115]
IC50 (human TLR7): 1.2 nM
IC50 (human TLR8): 0.49 nM
IC50 (human TLR9): 3480 nM

COc1cc(-c2[nH]c3ccc(N4CCN(CCC(F)(F)F)CC4)nc3c2C(C)C)cn2ncnc12 [Example 116]
IC50 (human TLR7): 9.7 nM
IC50 (human TLR8): 5 nM
IC50 (human TLR9): 35600 nM

COc1cc(-c2[nH]c3ccc(N4CCN(C(C)CO)CC4)nc3c2C(C)C)cn2ncnc12 (stereo not drawn) [Example 117]
IC50 (human TLR7): 1.4 nM
IC50 (human TLR8): 0.81 nM
IC50 (human TLR9): 5640 nM

COc1cc(-c2[nH]c3ccc(N4CCN(C(C)CCO)CC4)nc3c2C(C)C)cn2ncnc12 (stereo not drawn) [Example 118]
IC50 (human TLR7): 1.8 nM
IC50 (human TLR8): 0.86 nM
IC50 (human TLR9): 5580 nM

CCN1CCN(c2ccc3[nH]c(-c4cc(OC)c5ncnn5c4)c(C(C)C)c3n2)CC1 [Example 119]
IC50 (human TLR7): 1.8 nM
IC50 (human TLR8): 0.96 nM
IC50 (human TLR9): 14100 nM

COc1cc(-c2[nH]c3ccc(N4CCN(CC5CC5)CC4)nc3c2C(C)C)cn2ncnc12 [Example 120]
IC50 (human TLR7): 2.3 nM
IC50 (human TLR8): 0.6 nM
IC50 (human TLR9): 5490 nM

COc1cc(-c2[nH]c3ccc(N4CCN(C5CCN(C(C)=O)CC5)CC4)nc3c2C(C)C)cn2ncnc12 [Example 121]
IC50 (human TLR7): 3.4 nM
IC50 (human TLR8): 0.8 nM
IC50 (human TLR9): 6350 nM

CC(C)c1c(-c2cn(C)c3ncncc23)[nH]c2ccc(N3CCNCC3)nc12 [Example 122]
IC50 (human TLR7): 1.7 nM
IC50 (human TLR8): 1.1 nM
IC50 (human TLR9): 7250 nM

CC(C)c1c(-c2cn(C)c3ncncc23)[nH]c2ccc(N3CCN(C(=O)CN(C)C)CC3)nc12 [Example 123]
IC50 (human TLR7): 1.9 nM
IC50 (human TLR8): 6.3 nM
IC50 (human TLR9): 8650 nM

CC(C)c1c(-c2cn(C)c3ncncc23)[nH]c2ccc(N3CCN(C(=O)CCN(C)C)CC3)nc12 [Example 124]
IC50 (human TLR7): 1.2 nM
IC50 (human TLR8): 4.7 nM
IC50 (human TLR9): 5790 nM

CC(C)c1c(-c2cn(C)c3ncncc23)[nH]c2ccc(N3CCN(C)CC3)nc12 [Example 125]
IC50 (human TLR7): 2.6 nM
IC50 (human TLR8): 0.66 nM
IC50 (human TLR9): 6540 nM

CC(C)c1c(-c2cn(C)c3ncncc23)[nH]c2ccc(N3CCN(C(C)C)CC3)nc12 [Example 126]
IC50 (human TLR7): 5.9 nM
IC50 (human TLR8): 1.5 nM
IC50 (human TLR9): 6120 nM

CC(C)c1c(-c2cn(C)c3ncncc23)[nH]c2ccc(N3CCN(C4CCOCC4)CC3)nc12 [Example 127]
IC50 (human TLR7): 4.6 nM
IC50 (human TLR8): 0.48 nM
IC50 (human TLR9): 5900 nM

COc1cc(-c2[nH]c3ccc(N4CCN(CC(=O)N(C)C)CC4)nc3c2C(C)C)cn2ncnc12 [Example 128]
IC50 (human TLR7): 5.4 nM
IC50 (human TLR8): 2.6 nM
IC50 (human TLR9): 35400 nM

COc1cc(-c2[nH]c3ccc(N4CCN(Cc5cn(C)nn5)CC4)nc3c2C(C)C)cn2ncnc12 [Example 129]
IC50 (human TLR7): 6.7 nM
IC50 (human TLR8): 1.3 nM
IC50 (human TLR9): 22800 nM

COc1cc(-c2[nH]c3ccc(N4CCN(CC(N)=O)CC4)nc3c2C(C)C)cn2ncnc12 [Example 130]
IC50 (human TLR7): 4.3 nM
IC50 (human TLR8): 4.7 nM
IC50 (human TLR9): > 50000 nM

COCCN1CCN(c2ccc3[nH]c(-c4cc(OC)c5ncnn5c4)c(C(C)C)c3n2)CC1 [Example 131]
IC50 (human TLR7): 3.3 nM
IC50 (human TLR8): 0.63 nM
IC50 (human TLR9): 8570 nM

COc1cc(-c2[nH]c3ccc(N4CCN(CCCS(C)(=O)=O)CC4)nc3c2C(C)C)cn2ncnc12 [Example 132]
IC50 (human TLR7): 2.8 nM
IC50 (human TLR8): 0.51 nM
IC50 (human TLR9): 7390 nM

COc1cc(-c2[nH]c3ccc(N4CCN(C5CCS(=O)(=O)CC5)CC4)nc3c2C(C)C)cn2ncnc12 [Example 133]
IC50 (human TLR7): 4.3 nM
IC50 (human TLR8): 1.4 nM
IC50 (human TLR9): > 50000 nM

COc1cc(-c2[nH]c3ccc(N4CCN(CCNS(C)(=O)=O)CC4)nc3c2C(C)C)cn2ncnc12 [Example 134]
IC50 (human TLR7): 3.7 nM
IC50 (human TLR8): 1.1 nM
IC50 (human TLR9): 26100 nM

COc1cc(-c2[nH]c3ccc(N4CCN(CCCC(F)(F)F)CC4)nc3c2C(C)C)cn2ncnc12 [Example 135]
IC50 (human TLR7): 4.7 nM
IC50 (human TLR8): 1.6 nM
IC50 (human TLR9): 13200 nM

COc1cc(-c2[nH]c3ccc(N4CCN(CCC(=O)N(C)C)CC4)nc3c2C(C)C)cn2ncnc12 [Example 136]
IC50 (human TLR7): 5.7 nM
IC50 (human TLR8): 0.79 nM
IC50 (human TLR9): 8220 nM

COc1cc(-c2[nH]c3ccc(N4CCN(CCC(N)=O)CC4)nc3c2C(C)C)cn2ncnc12 [Example 137]
IC50 (human TLR7): 5.6 nM
IC50 (human TLR8): 1.3 nM
IC50 (human TLR9): 8450 nM

CNC(=O)CN1CCN(c2ccc3[nH]c(-c4cc(OC)c5ncnn5c4)c(C(C)C)c3n2)CC1 [Example 138]
IC50 (human TLR7): 11 nM
IC50 (human TLR8): 4.6 nM
IC50 (human TLR9): > 50000 nM

Cc1c(-c2[nH]c3ccc(N4CCNCC4=O)nc3c2C(C)C)cn2ncnc2c1C [Example 139]
IC50 (human TLR7): 37 nM
IC50 (human TLR8): 14 nM
IC50 (human TLR9): > 50000 nM
